Test results: patent US11696881B2, “Oral care compositions comprising hops beta acids and fluoride ions” (The Procter & Gamble Company, priority 2019, dated 2023)

System: plaque biofilm grown from pooled human saliva (3-day biofilm)
Assay: in vitro plaque glycolysis model (iPGRM): acid production and acid inhibition
Format: cell-based
Method: Acid production and acid inhibition were determined with the in vitro plaque glycolysis model (iPGRM). The purpose of this technique is to provide a simple and quick method for determining if compounds have an influence on the metabolic pathways that plaque microorganisms utilize to produce toxins that adversely affect gingival health.
The in vitro plaque glycolysis model (iPGRM) is a technique in which plaque is grown from human saliva and treated with various agents to determine anti-glycolytic activity of treatments. When bacteria convert sugar into energy with the help of enzymes, acids are formed. These acids demineralize and damage the dental enamel. […]
A plaque biofilm was grown on glass rods from fresh pooled human saliva and Trypticase Soy Broth (TSB) at 37° C. over […] by dipping glass rods into and out of media in a reciprocating motion. […] The pH of the media solutions was then measured to determine the amount of glycolysis inhibition relative to a negative control.
On Day 1, new glass rods (5 mm×90 mm) were polished approximately 25 mm from the untapered end on a lathe with silicon carbide paper of 240, 320, 400, and 600 grit used sequentially. […] After polishing, rods were stored until ready to run test. […]

[H]/N=C(\N/C(=N/[H])NCCCCCCNC(=N)NC(=N)Nc1ccc(Cl)cc1)Nc1ccc(Cl)cc1 [1% Chlorhexidine, Chlorhexidine]
Acid Production (ΔpH) Mean (Table 2, 2 min treatment with 1:5 slurry in water): 0.30 ΔpH | Mean Acid Inhibition (%) Mean (Table 2, relative to negative control Crest Cavity Protection): 80.77%
